Laboratory results: article PMC10819729 (Pharmaceutics, 2023)
Counter-ions that a name gives are not always drawn. Like-named read-outs stand apart in the source and are kept apart here.

Legend:
[1] = human, in vivo, cited from earlier work
[2] = cited from earlier work
in vivo = experiment: in vivo; parameters: species or system mice; conditions: male, C57BL/6J, mouse, 30 mg/kg; for half-life: T1/2 (plasma)
Procedure: Adult male C57BL/6J mice (8–9 weeks, 23–27 g) were purchased from the Jackson Laboratory, Bar Harbor, ME, USA. Mice were housed in ventilated cages with controlled temperature and humidity, and a 12 h light/dark cycle. Food and water were available ad libitum, and animals were habituated to the experimental room for three days before the start of the study. All procedures were conducted according to a protocol approved by the Texas Tech University Health Sciences Center Institutional Animal Care and Use Committee (protocol 21039, approved on 26 July 2023). […] Plasma and brain samples were collected 5, 20, 60, 120, and 180 min after the drug administration. […] Mice were deeply anesthetized with isoflurane and decapitated, followed by blood collection in a microtube containing heparin. Plasma was obtained by centrifugation of the microtube for 10 min at 5000× g at 4 °C. The brains were quickly removed and delicately cleansed on filter paper with sterile saline, the surface vasculature was removed using gauze tipped in saline, and the forebrains were quickly frozen using dry ice. Plasma and brain samples were stored at −80 °C until bioanalysis. The brain samples were homogenized at 1:10 (w/v) in LC-MS-grade water using BioSpec Tissue-Tearor Homogenizer. The plasma sample was diluted 10-fold (v/v) in LC-MS-grade water. The plasma samples and brain homogenates were subjected to protein precipitation using ice-cold acetonitrile (1:4 ratio) containing 0.1% formic acid along with the IS (10 ng/mL). The samples underwent continuous vortexing for 5 min, followed by centrifugation at 12,800× g at 4 °C. The resulting clear supernatant was used for injection into the mass spectrometer. LC-MS/MS analysis was conducted using a QTRAP 5500 mass spectrometer (SCIEX, Foster City, CA, USA) connected with a SHIMADZU Prominence LC system (Kyoto, Japan), consisting of an LC-30AD solvent delivery unit, a DGU-20A3R degassing unit, a CTO-30A column oven, and a SIL-30AC autosampler. Chromatographic separation was achieved on an EVO-C18 100Å column (1.7 µm i.d., 50 × 2.1 mm). The mobile phase comprised 0.1% formic acid in water (A) and 0.1% formic acid in acetonitrile (B) at a flow rate of 0.3 mL/min. […] The autosampler and column temperatures were 4 °C and 40 °C, respectively. The injection volume was 2 μL. The mass spectrometric detection of the analytes was executed using multiple reaction monitoring (MRM) with an electrospray ionization (ESI) source in positive ion mode. The conditions were curtain gas, 35 psi; ion spray voltage, 5500 V; temperature, 500 °C; ion source gas 1, 50 psi; and ion source gas 2, 55 psi. […] For milnacipran-d10, which served as the IS, the MH^+ was monitored at m/z 257.2, whereas a fragment at m/z 110.2 was monitored as the product ion. […] Data acquisition and processing were carried out using Sciex Analyst (version 1.7) and MultiQuant software (version 3.0), respectively. The pharmacokinetic parameters were assessed using standard non-compartmental analysis. Microsoft Excel and GraphPad Prism 8.4.3 software were used for calculations and graphical presentation. The apparent first-order terminal rate constant (Kel) with 95% confidence interval (95% CI) was obtained in Prism by linear regression of log-transformed plasma concentration versus time data. The linear trapezoidal model was used for both IV and IP administration to determine area under the curve from time 0 to 3 h (AUC0-3). AUC0-∞ (area under the curve from time 0 to infinity) was obtained by extrapolation to infinity, using the mean concentration at the terminal time point and Kel. The standard errors (SE) of AUC0-3 and AUC0-∞ were calculated applying Bailer’s method for sparse data. Cmax and Tmax values after IP administration are based on actual measurements for the noted sampling time-points. The terminal T1/2 with CI was calculated as 0.693/Kel. […] For the IV route, Vd was calculated using the formula Dose/C0, and clearance (Cl) was determined as Vd*Kel. […]

[3] = human; cited from earlier work

CCN(CC)C(=O)C1(c2ccccc2)CC1CN (racemic) [milnacipran, (±)-[1R(S), 2S(R)]-2-(aminomethyl)-N, N-diethyl-1-phenylcyclopropanecarboxamide hydrochloride]
bioavailability ([1]; po): ~ 90%
time to peak plasma concentrations ([1]; po): 2 to 4 h
terminal elimination half-life [1]: 360 to 600 min
volume of distribution [1]: 5.3 L/kg
half-life ([2]; rat, in vivo, iv, 4.5 mg/kg): 402 min
half-life ([2]; rats, intranasal, 20 mg/kg): 67.9 min
bioavailability (in vivo): 92.5%
AUC(0-inf) (in vivo; ip): 11000 ng·h/mL
AUC(0-t) (in vivo; ip): 10300 ng·h/mL
Cmax (in vivo; ip): 8530 ± 690 ng/mL
Kterm (plasma) (in vivo; ip): 0.016 (0.013 to 0.019) min^−1
MRT (in vivo; ip): 58.3 min
Tmax (in vivo; ip): 5 min
Vd (in vivo; ip): 3.37 L/kg
clearance (in vivo; ip): 39.5 mL/min/kg
half-life (in vivo; ip): 42.5 min
Tmax (in vivo; ip, Tmax (brain)): ~60 min
AUC(0-inf) (in vivo; iv): 11800 ng·h/mL
AUC(0-t) (in vivo; iv): 10400 ng·h/mL
Kterm (plasma) (in vivo; iv): 0.012 (0.011 to 0.013) min^−1
MRT (in vivo; iv): 57 min
T1/2 (plasma) (in vivo; iv): 59.2 (54.4 to 64.1) min
Vd (in vivo; iv): 3.65 L/kg
clearance (in vivo; iv): 42.7 mL/min/kg
half-life (in vivo; iv): 59 min
Tmax (in vivo; iv, Tmax (brain)): ~60 min
Plasma protein binding [3]: around 13%
